Measured values: patent US11052092B2, “N-{[2-(piperidin-1-yl)phenyl](phenyl)methyl}-2-(3-oxo-3,4-dihydro-2H-1,4-benzoxazin-7-yl)acetamide derivatives and related compounds as ROR-gamma modulators for treating autoimmune diseases” (Genfit, priority 2017, dated 2021)

Columns and labels:
[1] = molecular target: T1, RORγt ligand-binding domain (RORγt-LBD) (Homo sapiens, UniProt P51449); test: Time-resolved FRET (TR-FRET) RORγt coactivator assay; settings: GST-RORγ-LBD, biotinylated RIP140 peptide, 2 hours at room temperature
T1 construct: 20 nM recombinantly expressed RORγ-LBD fused to GST
T1 sequence (P51449 269-508 limits assumed): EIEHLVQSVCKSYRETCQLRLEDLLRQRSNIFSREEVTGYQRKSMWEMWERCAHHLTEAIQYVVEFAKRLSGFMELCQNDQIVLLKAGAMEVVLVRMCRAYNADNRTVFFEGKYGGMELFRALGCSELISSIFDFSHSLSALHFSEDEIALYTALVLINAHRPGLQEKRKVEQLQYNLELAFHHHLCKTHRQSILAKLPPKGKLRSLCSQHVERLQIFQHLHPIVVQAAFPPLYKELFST
In short: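 GST-tagged RORγt-LBD (20 nM) with 30 nM biotinylated RIP140-derived peptide, streptavidin-terbium and d2 anti-GST in CHAPS buffer (1 mM DTT, 2 mM EDTA, 0.1% BSA), 1% DMSO. Compounds at 0.3 nM–30 μM final, equilibrated 2 h, room temperature, dark. Coactivator displacement lowers the TR-FRET signal; IC50 (μM) and Emax (%) reported.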

[2] = test system: Murine EL-4 lymphoma cell line overexpressing human RORγt; test: IL-17 secretion from EL4 murine lymphoma; type: cell-based; settings: Mus musculus; human RORγt-transfected EL4 cells, PMA (10 ng/mL) and ionomycin (1 μM), 24 h; read-out: IC50, IL-17 secretion inhibition
In short: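 EL-4 cells electroporated with hRORγt plasmid, seeded at 150000 cells/well and pretreated with compound for 24 h, then stimulated with PMA (10 ng/mL) plus ionomycin (1 μM final) with compound for a further 24 h at 37 °C. IL-17 in supernatant measured by HTRF or ELISA.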

human RORγt = molecular target: T2, human RORγt (Homo sapiens, UniProt P51449); test: RORE Luciferase/RORγt transactivation assay; type: cell-based; settings: COS-7 cells transfected with human IL-17 promoter luciferase reporter and RORγt plasmid; 20 h with compound; read-out: IC50, RORγt activity inhibition
T2 construct: the full-length cDNA of human RORγt; expressed in transfected cells; host or cells: COS-7 (monkey kidney)
T2 sequence (P51449 1-497 isoform P51449-2): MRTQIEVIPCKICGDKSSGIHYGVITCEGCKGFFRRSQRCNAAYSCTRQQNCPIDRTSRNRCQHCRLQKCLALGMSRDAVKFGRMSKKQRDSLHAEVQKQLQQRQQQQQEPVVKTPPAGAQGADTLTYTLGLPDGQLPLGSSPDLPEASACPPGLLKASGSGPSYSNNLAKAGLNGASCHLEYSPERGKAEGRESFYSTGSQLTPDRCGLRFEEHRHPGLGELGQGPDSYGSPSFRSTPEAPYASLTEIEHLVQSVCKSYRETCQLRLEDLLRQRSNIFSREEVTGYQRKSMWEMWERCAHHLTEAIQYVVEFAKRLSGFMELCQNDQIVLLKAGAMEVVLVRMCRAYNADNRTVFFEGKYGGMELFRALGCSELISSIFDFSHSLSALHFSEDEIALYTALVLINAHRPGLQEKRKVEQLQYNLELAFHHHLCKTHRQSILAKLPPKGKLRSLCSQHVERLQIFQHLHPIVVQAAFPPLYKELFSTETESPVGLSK
In short: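 Transactivation read-out: luminescence (Steady-Glo, 30 min at room temperature) from COS-7 cells carrying a RORγt expression plasmid plus a 4.3 kb IL-17 promoter luciferase reporter. Compound exposure was in serum-free DMEM with 0.3% DMSO final. Reported values are IC50 (μM) and Emax (%).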

multiple sclerosis model = settings: administered by injection; cited from earlier work
psoriasis model = settings: administered by injection; cited from earlier work
[3] = test system: patients with moderate to severe psoriasis; settings: cited from earlier work

Cc1ccc(C(NC(=O)Cc2ccc3c(ccn3C(=O)C3CCOCC3)c2)c2ccc(C)o2)c(N2CCCCC2)c1 (stereo not drawn) [Cpd. 118, N-{[4-methyl-2-(piperidin-1-yl)phenyl](5-methylfuran-2-yl)methyl}-2-[1-(oxane-4-carbonyl)-1H-indol-5-yl]acetamide]
IC50 [1]: 100 to 1000 nM
IC50 [2]: < 100 nM
melting point: 96 °C
IC50 (human RORγt): 10 to 100 nM

CC(=O)Nc1nc(C)c(S(=O)(=O)Nc2ccc(C(O)(C(F)(F)F)C(F)(F)F)cc2)s1 [SR1001]
efficacy in multiple sclerosis model (multiple sclerosis model): efficacious

Cc1ccc([C@@H](NC(=O)Cc2ccc3oc([C@@H](O)c4c(C)noc4C)cc3c2)c2ccccc2)c(C)c1 [TMP778]
efficacy in psoriasis model (psoriasis model): efficacious

CCS(=O)(=O)c1ccc(CNC(=O)c2cnc3c(c2)CN(C[C@H]2CC[C@H](C(F)(F)F)CC2)[C@H]3C(C)C)nc1 [VTP-43742]
reduction in the Psoriasis Area Severity Index (PASI) score relative to placebo ([3]; 350 mg dose group): 24%
placebo-adjusted PASI score reduction ([3]; 700 mg dose group): 30%
plasma IL-17 levels ([3]; relative to placebo): reduced
